Patent publication US20260130395A1, “Water Dispersible Botanical Compositions” (Aquila Black Limited, priority 2021, published 2026)

Assay: Stability of cannabinoid compounds and Vitamin E components in Beverage 2 (AB Red) by LCMSMS
Format: physicochemical

Measured: Stability of Vitamin Es in AB Red

CC(=O)Oc1c(C)c(C)c2c(c1C)CCC(C)(CCC[C@H](C)CCC[C@H](C)CCCC(C)C)O2 (stereo partly drawn) [α-Tocopheryl acetate]
11.1 µg/mL: stored at 21-25° C., 360 days
10.7 µg/mL: stored at 8° C., 480 days
12.5 µg/mL: stored at 8° C., 0 days | stored at 8° C., 18 days | stored at 8° C., 19 days | stored at 8° C., 22 days | stored at 21-25° C., 0 days | stored at 21-25° C., 2 days | stored at 21-25° C., 10 days
12.2 µg/mL: stored at 8° C., 8 days | stored at 21-25° C., 5 days
12.6 µg/mL: stored at 8° C., 10 days | stored at 8° C., 24 days | stored at 8° C., 180 days | stored at 21-25° C., 30 days
11.3 µg/mL: stored at 8° C., 330 days | stored at 8° C., 360 days | stored at 21-25° C., 17 days | stored at 21-25° C., 240 days | stored at 21-25° C., 390 days | stored at 21-25° C., 420 days
12.1 µg/mL: stored at 8° C., 9 days | stored at 8° C., 30 days | stored at 21-25° C., 1 days | stored at 21-25° C., 15 days | stored at 21-25° C., 16 days | stored at 21-25° C., 22 days
12.3 µg/mL: stored at 8° C., 5 days | stored at 8° C., 25 days | stored at 8° C., 150 days | stored at 21-25° C., 11 days | stored at 21-25° C., 12 days | stored at 21-25° C., 90 days | stored at 21-25° C., 120 days
10.8 µg/mL: stored at 8° C., 540 days | stored at 8° C., 570 days
11.2 µg/mL: stored at 8° C., 240 days | stored at 8° C., 300 days | stored at 8° C., 420 days | stored at 21-25° C., 300 days | stored at 21-25° C., 450 days
11.5 µg/mL: stored at 8° C., 2 days | stored at 8° C., 16 days | stored at 21-25° C., 24 days
11.9 µg/mL: stored at 8° C., 11 days | stored at 8° C., 23 days | stored at 21-25° C., 29 days
11.4 µg/mL: stored at 8° C., 60 days | stored at 8° C., 390 days | stored at 8° C., 450 days | stored at 21-25° C., 8 days | stored at 21-25° C., 150 days | stored at 21-25° C., 270 days
10.6 µg/mL: stored at 8° C., 510 days | stored at 21-25° C., 540 days | stored at 21-25° C., 570 days
10.4 µg/mL: stored at 21-25° C., 480 days | stored at 21-25° C., 510 days
11.8 µg/mL: stored at 8° C., 17 days | stored at 8° C., 210 days
12.4 µg/mL: stored at 8° C., 12 days | stored at 21-25° C., 25 days
12.0 µg/mL: stored at 8° C., 15 days | stored at 21-25° C., 18 days | stored at 21-25° C., 19 days | stored at 21-25° C., 26 days | stored at 21-25° C., 180 days
11.6 µg/mL: stored at 8° C., 1 days | stored at 8° C., 3 days | stored at 8° C., 26 days | stored at 8° C., 90 days | stored at 8° C., 270 days | stored at 21-25° C., 9 days | stored at 21-25° C., 60 days | stored at 21-25° C., 210 days | stored at 21-25° C., 330 days
11.7 µg/mL: stored at 8° C., 29 days | stored at 8° C., 120 days | stored at 21-25° C., 3 days | stored at 21-25° C., 23 days
